Here are results for one molecule from patent publication US20130253020A1, “Treatment of Degenerative Disc Diseases” (priority 2012, published 2013).

For test [1], the system named is advanced glycation end-products (AGEs) in nucleus pulposus (NP) tissues. Briefly: AGEs in NP disc tissue: autofluorescence of acid hydrolysates divided by collagen content, after thiazolium salt incubation. Conditions: 4 days. Details: species or system human. The method, then:
Eleven lumbar spines (T12/L1-L5/S1) were collected fresh frozen cadavers consisting of 5 males and 6 females with a mean age of 82.5 years ±10.2. The cross-sections of the lumbar disc were visually categorized into Thompson grades 1 to 5 and corroborated with fluoroscopic imaging. The grade 1 (“Control”) and grade 5 (“Degenerate”) discs were used (total 27 discs). The discs were separated into annulus fibrosus (AF) and nucleus pulposus (NP) tissues. The Control discs were tested mechanically and then divided to undergo 0, 2, 4, 8, and 10 days of ribosylation in 0.6M ribose at 37° C. The treated Control discs, along with the degenerated discs were then tested mechanically using a dynamic microindentation device in 0.15M PBS at 20° C. using the Biopent 1000 reference point indentation system (Active Life Scientific, CA). A 1.47 mm diameter cylindrical probe cyclically indented the tissue to a depth of 300 μm at 1 Hz to generate a force displacement curve. Three distinct sites per AF/NP were measured and averaged between the sites. The resulting force-deformation curves, accounting for the probe geometry, were used to compute elastic modulus and tan δ.
Following mechanical measurements, the O-day and 4-day treated Control NP tissues were incubated in 0.15M of a thiazolium salt known to cleave AGEs products (Oturai P S, Christensen M, Rolin B, Pedersen K E, Mortensen S B, Boel E. Effects of advanced glycation end-product inhibition and cross-link breakage in diabetic rats. Metab Clin Exp 2000:49:996-1000.) for 4 days. […] Following the second incubation, all tissues were mechanically assessed again, and then subjected to acid hydrolysis by 6N hydrochloric acid (16 hours, 110C). The collagen crosslinking by AGEs, a sugar-derived posttranslational modification of amino acids, was quantified by measuring the autofluorescence of the acid hydrolysates at […] and divided by collagen content (Monnier V M, Kohn R R, Cerami A. Accelerated age-related browning of human collagen in diabetes mellitus. Proc Natl Acad Sci USA 1984; 81:583-587). […]

For test [2], the system named is nucleus pulposus (NP) tissues. Kind of test: Dynamic microindentation of NP tissue (indentation modulus, tan δ) after thiazolium salt incubation. Also noted: species or system human. Conditions: ribosylated or degenerated, thiazolium salt solution 4 days, FIG. 2. The method, then:
Eleven lumbar spines (T12/L1-L5/S1) were collected fresh frozen cadavers consisting of 5 males and 6 females with a mean age of 82.5 years ±10.2. The cross-sections of the lumbar disc were visually categorized into Thompson grades 1 to 5 and corroborated with fluoroscopic imaging. The grade 1 (“Control”) and grade 5 (“Degenerate”) discs were used (total 27 discs). The discs were separated into annulus fibrosus (AF) and nucleus pulposus (NP) tissues. The Control discs were tested mechanically and then divided to undergo 0, 2, 4, 8, and 10 days of ribosylation in 0.6M ribose at 37° C. […] Three distinct sites per AF/NP were measured and averaged between the sites. […]
Following mechanical measurements, the O-day and 4-day treated Control NP tissues were incubated in 0.15M of a thiazolium salt known to cleave AGEs products (Oturai P S, Christensen M, Rolin B, Pedersen K E, Mortensen S B, Boel E. Effects of advanced glycation end-product inhibition and cross-link breakage in diabetic rats. Metab Clin Exp 2000:49:996-1000.) for 4 days. […] Following the second incubation, all tissues were mechanically assessed again, and then subjected to acid hydrolysis by 6N hydrochloric acid (16 hours, 110C). […]

The next test concerns primary spine disc cells. Kind of test: mRNA expression of inflammatory cytokines and r-AGEs in primary spine disc cells exposed to AGEs. It counts as cell-based, human and bovine. Conditions: FIG. 3. An excerpt: Primary spine disc cells were isolated from both human and bovine spine discs. The tissues were digested using a cocktail containing collagenase P, trypsin, and other enzymes to release the primary cells embedded within the tissues (Neidlinger-Wilke C, Liedert A, Wuertz K, Buser Z, Rinkler C, Käfer W, et al. Mechanical stimulation alters pleiotrophin and aggrecan expression by human intervertebral disc cells and influences their capacity to stimulate endothelial migration. Spine 2009; 34:663-669). These cells were then conditioned and allowed to expand for 3 passages. After conditioning in normal cell culture media, the cells were exposed to several conditions: Control, bovine serum albumin, and AGEs. The treatments were dissolved directly in the cell culture media and then the cells were subjected to these conditions for 24 hours. Messenger ribose nucleic acids (mRNA) were then extracted from these cells and amplified into respective complimentary deoxyribose nucleic acids (cDNA). The cDNA sequences were tested for the normalized expression (normalized to the housekeeping gene, GAP-DH) of Interleukin (IL)-4, IL-6 (both of which initiate the inflammatory pain response), and the Receptor-for Advanced Glycation End-products (r-AGEs). The normalized expressions compared to the controls were computed by the delta-delta CT method.

Turning to `O=C(C[n+]1ccsc1)c1ccccc1.[Br-]` [PTB, N-phenacyl thiazolium bromide], the “AGEs in NP disc tissue” value in test [1] (Grade 1 (Control) NP tissue, 0.15M PTB solution) is listed as “significant reductions”; in test [1] (Grade 5 (Degenerate) NP tissue, 0.15M PTB solution) it was “significant reductions”; in test [1] (Grade I+Ribosylation NP tissue (4-day ribosylation), 0.15M thiazolium salt), “significant reductions”. The “mechanical properties of NP tissue (indentation modulus, tan δ)” value in test [2] is on record as “rescuing effect”. Besides, the “cellular inflammatory response, marked by the cytokines IL-4 and IL-6” value with primary spine disc cells (concurrent administration with AGEs in cell culture media, 24 hours) was “suppresses this response”. Moreover, the Interleukin-1 expression result in the test with primary spine disc cells (primary spinal disc cells) is listed as “decrease”. The Interleukin-6 expression result in the test with primary spine disc cells (primary spinal disc cells) was “decrease”. Besides, the “expression of the Receptor-for-Advanced Glycation End-Products” value in the test on primary spine disc cells (primary spinal disc cells) is “reduction”.
